Results taken from US20080234262A1 (Wyeth, priority 2007, published 2008).

How the values were obtained:
breast line MDA468 = experiment: In vitro cell culture growth assay (MTS), MDA468; type: cell-based, human; details: MDA468 cells, three days after drug treatment
Method in brief: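 MDA468 or LNCap cells received inhibitors one day after plating and were grown for three days. Viable cell density read by MTS conversion, absorbance 490 nm, expressed as percent of control growth versus vehicle-treated cells on the same plate.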

prostate line LNCap = experiment: In vitro cell culture growth assay (MTS), LNCap; type: cell-based, human; details: LNCap cells, three days after drug treatment
PI3K = PI3K (Homo sapiens, UniProt P42336); experiment: Fluorescence polarization assay for PI3K; type: biochemical; details: PI3Kα; read-out: PI3Kα IC50;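 note: PI3K kinase reaction on PIP2 with ATP, 30-60 min, product sensed by GST-GRP with red probe in fluorescence polarization (mP), controls without enzyme and at zero time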
Sequence of PI3K (P42336 whole entry): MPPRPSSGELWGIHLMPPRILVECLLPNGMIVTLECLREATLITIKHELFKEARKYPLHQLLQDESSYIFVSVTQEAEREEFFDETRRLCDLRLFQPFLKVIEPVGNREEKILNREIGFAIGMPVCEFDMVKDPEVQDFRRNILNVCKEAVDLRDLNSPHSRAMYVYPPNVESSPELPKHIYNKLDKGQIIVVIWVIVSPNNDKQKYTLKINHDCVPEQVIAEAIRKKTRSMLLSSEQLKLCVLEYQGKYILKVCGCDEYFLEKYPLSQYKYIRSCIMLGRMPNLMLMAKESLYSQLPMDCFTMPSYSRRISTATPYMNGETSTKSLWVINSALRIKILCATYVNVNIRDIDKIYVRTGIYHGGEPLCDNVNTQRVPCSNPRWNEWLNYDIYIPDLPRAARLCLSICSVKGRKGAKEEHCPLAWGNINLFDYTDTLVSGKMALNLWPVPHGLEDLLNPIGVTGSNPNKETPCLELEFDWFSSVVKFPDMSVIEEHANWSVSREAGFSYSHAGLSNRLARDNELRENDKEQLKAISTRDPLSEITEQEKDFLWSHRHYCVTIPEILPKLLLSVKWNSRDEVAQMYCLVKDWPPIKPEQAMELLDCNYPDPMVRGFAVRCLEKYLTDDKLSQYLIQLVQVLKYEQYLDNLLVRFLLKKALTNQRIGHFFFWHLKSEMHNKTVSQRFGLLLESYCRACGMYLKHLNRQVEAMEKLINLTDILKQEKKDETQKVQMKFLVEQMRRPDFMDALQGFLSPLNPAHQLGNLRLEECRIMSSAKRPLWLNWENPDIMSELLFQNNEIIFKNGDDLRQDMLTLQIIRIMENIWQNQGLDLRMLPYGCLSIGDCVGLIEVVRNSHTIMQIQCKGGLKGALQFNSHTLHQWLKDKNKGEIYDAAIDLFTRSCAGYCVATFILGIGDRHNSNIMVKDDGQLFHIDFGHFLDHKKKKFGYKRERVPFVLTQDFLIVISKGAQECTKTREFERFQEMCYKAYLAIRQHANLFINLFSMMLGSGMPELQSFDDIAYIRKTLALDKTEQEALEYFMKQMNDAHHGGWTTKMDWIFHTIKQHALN
Sequence of PI3K (P27986 whole entry partner): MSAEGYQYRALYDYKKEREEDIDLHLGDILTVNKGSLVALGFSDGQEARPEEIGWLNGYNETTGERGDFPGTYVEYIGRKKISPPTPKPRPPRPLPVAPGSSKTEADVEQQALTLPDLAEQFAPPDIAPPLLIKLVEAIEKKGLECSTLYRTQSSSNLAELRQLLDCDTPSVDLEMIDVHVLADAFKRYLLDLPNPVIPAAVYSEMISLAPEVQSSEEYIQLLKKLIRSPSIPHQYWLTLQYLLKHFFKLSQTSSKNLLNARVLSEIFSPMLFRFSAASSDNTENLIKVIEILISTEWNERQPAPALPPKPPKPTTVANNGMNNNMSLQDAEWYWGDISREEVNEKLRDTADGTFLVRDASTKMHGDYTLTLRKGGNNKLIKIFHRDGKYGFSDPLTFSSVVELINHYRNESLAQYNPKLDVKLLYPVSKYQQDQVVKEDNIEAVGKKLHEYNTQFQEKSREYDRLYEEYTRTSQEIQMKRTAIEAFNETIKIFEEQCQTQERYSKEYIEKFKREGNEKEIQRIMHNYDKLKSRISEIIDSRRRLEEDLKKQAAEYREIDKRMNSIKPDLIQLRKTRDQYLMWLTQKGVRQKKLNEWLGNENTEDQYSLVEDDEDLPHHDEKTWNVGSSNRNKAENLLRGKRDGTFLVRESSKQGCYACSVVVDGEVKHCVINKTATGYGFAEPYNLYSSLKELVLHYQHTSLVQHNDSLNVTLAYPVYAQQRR

IC50 (prostate line LNCap; Homo sapiens, LNCaP, 72 h) [nM] | IC50 (PI3K) [nM] | IC50 (prostate line LNCap) [nM] | SMILES | IC50 (breast line MDA468; Homo sapiens, 72 h) [nM] | IC50 (breast line MDA468) [nM]
70 | 59 | – | CC(C)(C)OC(=O)N1CCC(n2ncc3c(N4CCOCC4)nc(-c4ccc(NC(=O)Nc5ccncc5)cc4)nc32)CC1 [Compound 771, tert-butyl 4-(4-morpholin-4-yl-6-{4-[(pyridin-4-ylcarbamoyl)amino]phenyl}-1H-pyrazolo[3,4-d]pyrimidin-1-yl)piperidine-1-carboxylate] | 190 | –
370 | 36 | – | Oc1cccc(-c2nc(N3CCOCC3)c3cnn(C4CCNCC4)c3n2)c1 [Compound 9] | 2200 | –
1700 | 457 | – | NCc1ccc(-c2nc(N3CCOCC3)c3cnn(-c4ccccc4)c3n2)cc1 [Compound 146] | 4000 | –
< 27 | 20 | – | O=C(Nc1ccc(-c2nc(N3CCOCC3)c3cnn(C4CCN(Cc5cccnc5)CC4)c3n2)cc1)Nc1cccnc1 [Compound 559, 1-(4-{4-morpholin-4-yl-1-[1-(pyridin-3-ylmethyl)piperidin-4-yl]-1H-pyrazolo[3,4-d]pyrimidin-6-yl}phenyl)-3-pyridin-3-ylurea] | < 27 | –
9 | 10 | – | CC(C)(C)OC(=O)N1CCC(n2ncc3c(N4CCOCC4)nc(-c4ccc(NC(=O)Nc5ccc(CCO)cc5)cc4)nc32)CC1 [Compound 954, tert-butyl 4-{6-[4-({[4-(2-hydroxyethyl)phenyl]carbamoyl}amino)phenyl]-4-morpholin-4-yl-1H-pyrazolo[3,4-d]pyrimidin-1-yl}piperidine-1-carboxylate] | 100 | –
120 | 32 | – | CC(C)(C)COC(=O)N1CCC(n2ncc3c(N4CCOCC4)nc(-c4ccc(NC(=O)Nc5cccnc5)cc4)nc32)CC1 [Compound 877, 2,2-dimethylpropyl 4-(4-morpholin-4-yl-6-{4-[(pyridin-3-ylcarbamoyl)amino]phenyl}-1H-pyrazolo[3,4-d]pyrimidin-1-yl)piperidine-1-carboxylate] | 400 | –
27 | 108 | – | CNC(=O)Nc1ccc(-c2nc(N3CCOCC3)c3cnn(C4CCN(C(=O)c5ccc(F)cc5)CC4)c3n2)cc1 [Compound 607, 1-(4-{1-[1-(4-fluorobenzoyl)piperidin-4-yl]-4-morpholin-4-yl-1H-pyrazolo[3,4-d]pyrimidin-6-yl}phenyl)-3-methylurea] | 90 | –
3000 | 178 | – | NC(=O)Nc1ccc(-c2nc(N3CCOCC3)c3cnn(C4CCN(C(=O)c5cccnc5)CC4)c3n2)cc1 [Compound 546, 1-(4-{4-morpholin-4-yl-1-[1-(pyridin-3-ylcarbonyl)piperidin-4-yl]-1H-pyrazolo[3,4-d]pyrimidin-6-yl}phenyl)urea] | 1800 | –
40 | 51 | – | CNC(=O)Nc1ccc(-c2nc(N3CCOCC3)c3cnn(C4CCN(Cc5ccccc5C)CC4)c3n2)cc1 [Example 429, 1-methyl-3-(4-{1-[1-(2-methylbenzyl)piperidin-4-yl]-4-morpholin-4-yl-1H-pyrazolo[3,4-d]pyrimidin-6-yl}phenyl)urea] | 200 | –
200 | 13 | – | CNCCNC(=O)Nc1ccc(-c2nc(N3CCOCC3)c3cnn(C4CCN(Cc5ccccc5)CC4)c3n2)cc1 [Compound 545, 1-{4-[1-(1-benzylpiperidin-4-yl)-4-morpholin-4-yl-1H-pyrazolo[3,4-d]pyrimidin-6-yl]phenyl}-3-[2-(methylamino)ethyl]urea] | 150 | –
7200 | 4660 | – | CNS(=O)(=O)c1ccc(-c2nc(N3CCOCC3)c3cnn(C4CCN(Cc5ccccc5)CC4)c3n2)cc1 [Compound 86] | 6500 | –
3000 | 612 | – | COC(=O)Nc1ccc(-c2nc(N3CCOCC3)c3cn[nH]c3n2)cc1 [Compound 525, methyl [4-(4-morpholin-4-yl-1H-pyrazolo[3,4-d]pyrimidin-6-yl)phenyl]carbamate] | 12000 | –
100 | 198 | – | O=C(NO)Nc1ccc(-c2nc(N3CCOCC3)c3cnn(C4CCN(Cc5ccccc5)CC4)c3n2)cc1 [Compound 555, 1-{4-[1-(1-benzylpiperidin-4-yl)-4-morpholin-4-yl-1H-pyrazolo[3,4-d]pyrimidin-6-yl]phenyl}-3-hydroxyurea] | 1100 | –
– | 90 | 45 | CNC(=O)Nc1ccc(-c2nc(N3CCOCC3)c3cnn(C4CCN(Cc5cccnc5Cl)CC4)c3n2)cc1 [Compound 635, 1-[4-(1-{1-[(2-chloropyridin-3-yl)methyl]piperidin-4-yl}-4-morpholin-4-yl-1H-pyrazolo[3,4-d]pyrimidin-6-yl)phenyl]-3-methylurea] | – | 110
52 | 42 | – | CNC(=O)Nc1ccc(-c2nc(N3CCOCC3)c3cnn(C4CCN(C(=O)c5ccc(Cl)cc5)CC4)c3n2)cc1 [Compound 608, 1-(4-{1-[1-(4-chlorobenzoyl)piperidin-4-yl]-4-morpholin-4-yl-1H-pyrazolo[3,4-d]pyrimidin-6-yl}phenyl)-3-methylurea] | 400 | –
140 | 126 | – | CNC(=O)Nc1ccc(-c2nc(N3CCOCC3)c3cnn(C4CCN(CC(=O)OC)CC4)c3n2)cc1 [Compound 794, methyl [4-(6-{4-[(methylcarbamoyl)amino]phenyl}-4-morpholin-4-yl-1H-pyrazolo[3,4-d]pyrimidin-1-yl)piperidin-1-yl]acetate] | 500 | –
1000 | 2800 | – | O=CN1CCC(n2ncc3c(N4CCOCC4)nc(-c4ccc5[nH]ccc5c4)nc32)CC1 [Compound 518, 4-[6-(1H-indol-5-yl)-4-morpholin-4-yl-1H-pyrazolo[3,4-d]pyrimidin-1-yl]piperidine-1-carbaldehyde] | 3000 | –
90 | 770 | – | CCCOC(=O)N1CCC(n2ncc3c(N4CCOCC4)nc(-c4ccc(NC(=O)NC5CC5)cc4)nc32)CC1 [Compound 856, propyl 4-(6-{4-[(cyclopropylcarbamoyl)amino]phenyl}-4-morpholin-4-yl-1H-pyrazolo[3,4-d]pyrimidin-1-yl)piperidine-1-carboxylate] | 510 | –
< 27 | 22 | – | CNC(=O)Nc1ccc(-c2nc(N3CCOCC3)c3cnn(C4CCN(CC(=O)c5ccccc5)CC4)c3n2)cc1 [Compound 577, 1-methyl-3-(4-{4-morpholin-4-yl-1-[1-(2-oxo-2-phenylethyl)piperidin-4-yl]-1H-pyrazolo[3,4-d]pyrimidin-6-yl}phenyl)urea] | 180 | –
– | 30 | 27 | CNC(=O)Nc1ccc(-c2nc(N3CCOCC3)c3cnn(C4CCN(Cc5cccc(F)c5)CC4)c3n2)cc1 [Compound 672, 1-(4-{1-[1-(3-fluorobenzyl)piperidin-4-yl]-4-morpholin-4-yl-1H-pyrazolo[3,4-d]pyrimidin-6-yl}phenyl)-3-methylurea] | – | 150
– | 1140 | 250 | COC(=O)Nc1ccc(-c2nc(N3CCOCC3)c3cnn(C4CCN(C(=O)c5ccccc5F)CC4)c3n2)cc1 [Compound 687, methyl (4-{1-[1-(2-fluorobenzoyl)piperidin-4-yl]-4-morpholin-4-yl-1H-pyrazolo[3,4-d]pyrimidin-6-yl}phenyl)carbamate] | – | 480
27 | 15 | – | O=C(Nc1ccncc1)Nc1ccc(-c2nc(N3CCOCC3)c3cnn(C4CCN(C(=O)c5cccnc5)CC4)c3n2)cc1 [Compound 591, 1-(4-{4-morpholin-4-yl-1-[1-(pyridin-3-ylcarbonyl)piperidin-4-yl]-1H-pyrazolo[3,4-d]pyrimidin-6-yl}phenyl)-3-pyridin-4-ylurea] | < 27 | –
60 | 766 | – | CCNC(=O)Nc1ccc(-c2nc(N3CCOCC3)c3cnn(C4CCN(CC(F)(F)F)CC4)c3n2)cc1 [Compound 782, 1-ethyl-3-(4-{4-morpholin-4-yl-1-[1-(2,2,2-trifluoroethyl)piperidin-4-yl]-1H-pyrazolo[3,4-d]pyrimidin-6-yl}phenyl)urea] | 300 | –
1200 | 750 | – | COC(=O)Nc1ccc(-c2nc(N3CCOCC3)c3cnn(C4CCN(Cc5ccc(F)cc5)CC4)c3n2)cc1 [Compound 450, methyl (4-{1-[1-(4-fluorobenzyl)piperidin-4-yl]-4-morpholin-4-yl-1H-pyrazolo[3,4-d]pyrimidin-6-yl}phenyl)carbamate] | 2600 | –
80 | 53 | – | O=C(Nc1ccccc1)Nc1ccc(-c2nc(N3CCOCC3)c3cnn(C4CCN(CCCCO)CC4)c3n2)cc1 [Compound 748, 1-(4-{1-[1-(4-hydroxybutyl)piperidin-4-yl]-4-morpholin-4-yl-1H-pyrazolo[3,4-d]pyrimidin-6-yl}phenyl)-3-phenylurea] | 390 | –
< 27 | 42 | – | CNC(=O)Nc1ccc(-c2nc(N3CCOCC3)c3cnn(C4CCN(C(=O)c5ccc(C)cc5)CC4)c3n2)cc1 [Compound 613, 1-methyl-3-(4-{1-[1-(4-methylbenzoyl)piperidin-4-yl]-4-morpholin-4-yl-1H-pyrazolo[3,4-d]pyrimidin-6-yl}phenyl)urea] | 85 | –
3300 | 3050 | – | COCCOC(=O)Nc1ccc(-c2nc(N3CCOCC3)c3cnn(C4CCN(C(=O)OC)CC4)c3n2)cc1 [Compound 902, methyl 4-[6-(4-{[(2-methoxyethoxy)carbonyl]amino}phenyl)-4-morpholin-4-yl-1H-pyrazolo[3,4-d]pyrimidin-1-yl]piperidine-1-carboxylate] | > 60000 | –
